According to the supplement of paper PMC4862054:
“And” between values parts separate entries of the source, which are not always exact repeats. Identical values can stand only once.

Experiments:
Conditions in all cases: incubation time: 72 h
DU-4475 = assay: drug sensitivity score (DSS), CellTiter-Blue viability (DSS (AUC-based score)); higher = stronger viability inhibition; extreme values may be limits of the assay
Procedure: (§1)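 DSRT with the CellTiter-Blue (resazurin reduction) viability readout, fluorescence 560/590 nm, 72 h incubation. Plates were normalised to DMSO and benzethonium chloride controls. DSS is computed from the area under the fitted dose-response curve (5 or 9 concentrations).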

BT-549 = assay: as above
Procedure: as §1

MDA-MB-453 = assay: as above
Procedure: as §1

SK-BR-3 = assay: as above
Procedure: as §1

MDA-MB-231 = assay: as above
Procedure: as §1

MFM-223 [1] = assay: as above
Procedure: as §1

MDA-MB-436 [2] = assay: as above
Procedure: as §1

HCC1599 [3] = assay: as above
Procedure: as §1

Hs578T = assay: as above
Procedure: as §1

CAL-51 [4] = assay: as above
Procedure: as §1

BT-474 = assay: as above
Procedure: as §1

HDQ-P1 = assay: as above
Procedure: as §1

HCC1143 = assay: as above
Procedure: as §1

CAL-85-1 [5] = assay: as above
Procedure: as §1

CAL-120 = assay: as above
Procedure: as §1

CAL-148 = assay: as above
Procedure: as §1

HCC1937 [6] = assay: as above
Procedure: as §1

MDA-MB-468 = assay: as above
Procedure: as §1

MFM-223 [7] = assay: drug sensitivity score (DSS), CellTiter-Glo (DSS (AUC-based score)); higher = stronger drug effect (viability inhibition or cytotoxicity); extreme values may be limits of the assay
In short: (§2)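 Compound was dispensed into 384-well plates at 5 concentrations in 10-fold steps spanning a 10,000-fold range chosen for each compound, and 20 µl of breast cancer cell suspension was added before 72 h of incubation. CellTox Green fluorescence was read at 485/520 nm, followed by CellTiter-Glo luminescence after 10 min at room temperature. Values on each plate were normalised to 0.1 % DMSO and a positive kill control. The drug sensitivity score came from the area under the fitted dose-response curve.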

MDA-MB-436 [8] = assay: as above
In short: as §2

HCC1599 [9] = assay: as above
In short: as §2

CAL-51 [10] = assay: as above
In short: as §2

CAL-85-1 [11] = assay: as above
In short: as §2

HCC1937 [12] = assay: as above
In short: as §2

Row | Compound | drug sensitivity score (DU-4475) | drug sensitivity score (BT-549) | drug sensitivity score (MDA-MB-453) | drug sensitivity score (SK-BR-3) | drug sensitivity score (MDA-MB-231) | drug sensitivity score (MFM-223 [1]) | drug sensitivity score (MDA-MB-436 [2]) | drug sensitivity score (HCC1599 [3]) | drug sensitivity score (Hs578T) | drug sensitivity score (CAL-51 [4]) | drug sensitivity score (BT-474) | drug sensitivity score (HDQ-P1) | drug sensitivity score (HCC1143) | drug sensitivity score (CAL-85-1 [5]) | drug sensitivity score (CAL-120) | drug sensitivity score (CAL-148) | drug sensitivity score (HCC1937 [6]) | drug sensitivity score (MDA-MB-468) | drug sensitivity score (MFM-223 [7]) | drug sensitivity score (MDA-MB-436 [8]) | drug sensitivity score (HCC1599 [9]) | drug sensitivity score (CAL-51 [10]) | drug sensitivity score (CAL-85-1 [11]) | drug sensitivity score (HCC1937 [12])
1 | NC(=O)c1cccc2cn(-c3ccc([C@@H]4CCCNC4)cc3)nc12 [MK-4827] | 6.73 | 0 | 0 | 0 | 0 | 0 | 0 | 0 | 0 | 5.3 | 0 | 0 | 3.49 | 0 | 0 | 2.86 | 8.54 | 0 | 0 | 3.73 | 0 | 0 | 0 | 0
2 | N[C@@H](Cc1ccc(N(CCCl)CCCl)cc1)C(=O)O [Melphalan] | 0 | 0 | 0 | 0 | 0 | 0 | 0 | 0 | 3.68 | 0 | 0 | 0 | 0 | 0 | 0 | 0 | 9.6 | 0 | 19.3 | 16.6 | 17.2 | 21.3 | 17.4 | 20.2
3 | O=C(c1cc(Cc2n[nH]c(=O)c3ccccc23)ccc1F)N1CCN(C(=O)C2CC2)CC1 [Olaparib] | 3.83 | 0 | 0 | 0.543 | 0 | 0 | 0 | 0 | 0 | 3.33 | 0 | 0 | 0 | 0 | 0 | 0 | 11.2 | 2.78 | 0 | 4.69 | 0 | 10.1 | 0 | 0
4 | CO[C@H](C(=O)[C@@H](O)[C@@H](C)O)[C@@H]1Cc2cc3cc(O[C@H]4C[C@@H](O[C@@H]5C[C@@H](O)[C@H](O)[C@@H](C)O5)[C@H](O)[C@@H](C)O4)c(C)c(O)c3c(O)c2C(=O)[C@H]1O[C@H]1C[C@@H](O[C@@H]2C[C@@H](O)[C@@H](O[C@@H]3C[C@](C)(O)[C@H](O)[C@@H](C)O3)[C@@H](C)O2)[C@H](O)[C@@H](C)O1 [Plicamycin] | 28 and 28.2 | 27.1 and 27.9 | 22.7 and 24.3 | 25 and 27.1 | 26 and 26.4 | 18.2 and 19 | 23.3 and 27.5 | 18.9 and 20.2 | 28 and 31.7 | 22.1 and 22.3 | 16.8 and 17.6 | 17.6 and 22.2 | 22.2 and 25.5 | 22.8 and 23.8 | 22.5 and 23.6 | 25.6 and 24.2 | 21.1 and 22.3 | 29.9 and 30.3 | 1.97 | 2.49 | 3.99 | 18.2 | 4.1 | 4.37
5 | C[C@]12C=CC(=O)C=C1CC[C@@H]1[C@@H]2C(=O)C[C@@]2(C)[C@H]1CC[C@]2(O)C(=O)CO [Prednisone] | 0 | 0 | 0 | 0 | 0 | 0 | 0 | 0 | 0 | 0 | 0 | 0 | 0 | 0 | 0 | 0 | 0 | 0 | 0 | 0 | 0 | 0 | 0 | 0
6 | CO[C@H]1C[C@@H]2CC[C@@H](C)[C@@](O)(O2)C(=O)C(=O)N2CCCC[C@H]2C(=O)O[C@H]([C@H](C)C[C@@H]2CC[C@@H](O)[C@H](OC)C2)CC(=O)[C@H](C)/C=C(\C)[C@@H](O)[C@@H](OC)C(=O)[C@H](C)C[C@H](C)/C=C/C=C/C=C/1C [Sirolimus] | 15 | 20.8 | 27.8 | 15.4 | 0 | 21.3 | 0 | 9.43 | 14.4 | 23.8 | 0 | 13.2 | 10.1 | 17 | 17.3 | 19.8 | 20.4 | 14.2 | 5.41 | 3.52 | 0 | 7.01 | 8.85 | 3.34
7 | CN1CCN(c2nc(C3=C(c4c[nH]c5ccccc45)C(=O)NC3=O)c3ccccc3n2)CC1 [Sotrastaurin] | 0 | 0 | 0 | 0 | 0 | 0 | 0 | 0 | 0 | 0 | 0 | 0 | 0 | 0 | 0 | 0 | 0 | 0 | 0 | 0 | 0 | 0 | 0 | 0
8 | CC/C(=C(\c1ccccc1)c1ccc(OCCN(C)C)cc1)c1ccccc1 [Tamoxifen] | 0 | 1.73 | 2.6 | 0 | 0 | 0 | 2.35 | 0 | 0 | 0 | 0 | 0 | 0 | 0 | 0 | 0 | 0 | 3.95 | 1.68 | 0 | 0 | 4.03 | 0 | 1.17
9 | COc1cc2c(N3CCN(C(=O)Nc4ccc(OC(C)C)cc4)CC3)ncnc2cc1OCCCN1CCCCC1 [Tandutinib] | 0 | 0 | 0 | 0 | 0 | 0 | 0 | 0 | 0 | 0 | 0 | 0 | 0 | 0 | 0 | 0.668 | 0 | 0 | 0 | 0 | 0 | 0 | 0 | 0
10 | C[C@@H](C(=O)O)c1ccc(-c2ccccc2)c(F)c1 [Tarenflurbil] | 0 | 0 | 1.49 | 0 | 0 | 0 | 0 | 0 | 0 | 0 | 0 | 0 | 0 | 0 | 0 | 0 | 0 | 0 | 0 | 0 | 0 | 0 | 0 | 0
11 | Cn1nnc2c(C(N)=O)ncn2c1=O [Temozolomide] | 0 | 2.1 | 0 | 0 | 0 | 0 | 0 | 0 | 0 | 0 | 0 | 1.58 | 0 | 0 | 0 | 0 | 0 | 0 | 0 | 0 | 0 | 0 | 0 | 0
12 | CC[C@@H]1C(=O)N(C)c2cnc(Nc3ccc(C(=O)N[C@H]4CC[C@H](N5CCN(CC6CC6)CC5)CC4)cc3OC)nc2N1C(C)C [Volasertib] | 14.7 | 12.3 | 19.2 | 19.8 | 12.3 | 16.9 | 3.18 | 0 | 11.3 | 17.6 | 8.65 | 5.17 | 13.4 | 10.9 | 20.5 | 17.8 | 16.3 | 11.9 | 15.5 | 12.9 | 10.3 | 16.3 | 12.6 | 3.79
